From patent US11076594B2, “Pyrazolone compound or salt thereof, preparation method therefor, herbicide composition and use thereof” (QINGDAO KINGAGROOT CHEMICAL COMPOUNDS CO., LTD., priority 2015, dated 2021)

Experiments:
Type in all cases: in vivo
Conditions in all cases: post-emergence spray at 4-5 leaf stage, 250 g/ha active ingredient with 450 kg/ha water, rated after 3 weeks in greenhouse
[1] = system: Indian mallow; experiment: weed control effect in post-emergence stage (Table 1); design: key: Level 10: completely dead; Level 9: above 95% growth control rate; Level 8: above 90% growth control rate; Level 7: above 80% growth control rate; Level 6: above 70% growth control rate; Level 5: above 60% growth control rate; Level 4: above 50% growth control rate; Level 3: above 20% growth control rate; Level 2: 5%-20% growth control rate; Level 1: below 5% growth control rate
Method: (§1) The activity level standard of harmful plant destruction (i.e. growth control rate) is as follows: The above described growth control rate is fresh weight control rate. Monocotyledonous and dicotyledonous weed seeds and main crop seeds (i.e. wheat, corn, rice, soybean, cotton, oilseed, millet and sorghum.) were put into a plastic pot loaded with soil. Then covered with 0.5-2 cm soil, the seeds were allowed to grow in good greenhouse environment. The test plants were treated at 4-5 leaf stage 2-3 weeks after sowing. The test compounds of the invention were dissolved with acetone respectively, then added with 80 tween and diluted by certain amount of water to certain concentration. The solution was sprayed to the plants with a sprayer. Then the plants were cultured for 3 weeks in the greenhouse.

[2] = system: crab grass; experiment: as above; design: key: Level 10: completely dead; Level 9: above 95% growth control rate; Level 8: above 90% growth control rate; Level 7: above 80% growth control rate; Level 6: above 70% growth control rate; Level 5: above 60% growth control rate; Level 4: above 50% growth control rate; Level 3: above 20% growth control rate; Level 2: 5%-20% growth control rate; Level 1: below 5% growth control rate
Method: as §1

[3] = system: echinochloa; experiment: as above; design: key: Level 10: completely dead; Level 9: above 95% growth control rate; Level 8: above 90% growth control rate; Level 7: above 80% growth control rate; Level 6: above 70% growth control rate; Level 5: above 60% growth control rate; Level 4: above 50% growth control rate; Level 3: above 20% growth control rate; Level 2: 5%-20% growth control rate; Level 1: below 5% growth control rate
Method: as §1

[4] = system: foxtail; experiment: as above; design: key: Level 10: completely dead; Level 9: above 95% growth control rate; Level 8: above 90% growth control rate; Level 7: above 80% growth control rate; Level 6: above 70% growth control rate; Level 5: above 60% growth control rate; Level 4: above 50% growth control rate; Level 3: above 20% growth control rate; Level 2: 5%-20% growth control rate; Level 1: below 5% growth control rate
Method: as §1

[5] = system: rorippa indica; experiment: as above; design: key: Level 10: completely dead; Level 9: above 95% growth control rate; Level 8: above 90% growth control rate; Level 7: above 80% growth control rate; Level 6: above 70% growth control rate; Level 5: above 60% growth control rate; Level 4: above 50% growth control rate; Level 3: above 20% growth control rate; Level 2: 5%-20% growth control rate; Level 1: below 5% growth control rate
Method: as §1

[6] = system: wheat; experiment: post-emergence stage experiment, crop (Table 1)
Method: as §1

[7] = system: rice; experiment: post-emergence stage experiment, crop (Table 1)
Method: as §1

[8] = system: bidens bipinnata; experiment: weed control effect in post-emergence stage (Table 1); design: key: Level 10: completely dead; Level 9: above 95% growth control rate; Level 8: above 90% growth control rate; Level 7: above 80% growth control rate; Level 6: above 70% growth control rate; Level 5: above 60% growth control rate; Level 4: above 50% growth control rate; Level 3: above 20% growth control rate; Level 2: 5%-20% growth control rate; Level 1: below 5% growth control rate
Method: as §1

Row | effect on crop, Wheat (level) [6] | SMILES | weed control effect, Indian mallow (level) [1] | weed control effect, Crab grass (level) [2] | weed control effect, Echinochloa (level) [3] | weed control effect, Green foxtail (level) [4] | weed control effect, Rorippa indica (level) [5] | effect on crop, Rice (level) [7] | weed control effect, Bidens bipinnata (level) [8]
1 | 0 | Cc1nn(C)c(O)c1C(=O)c1ccc(C(F)(F)F)c(-n2cc(Cl)cn2)c1Cl [Compound 095] | 0 | 1 (Level 1: below 5% growth control rate) | 1 (Level 1: below 5% growth control rate) | 1 (Level 1: below 5% growth control rate) | 0 | 6 (Level 6: above 70% growth control rate) | –
2 | 0 | CC(=O)N(CCCOC(C)C)c1c(C(F)(F)F)ccc(C(=O)c2c(C)nn(C)c2O)c1Cl [Compound 010] | 0 | 1 (Level 1: below 5% growth control rate) | 6 (Level 6: above 70% growth control rate) | 5 (Level 5: above 60% growth control rate) | 0 | 0 | 5 (Level 5: above 60% growth control rate)
3 | 0 | CCOCCCN(C(C)=O)c1c(C(F)(F)F)ccc(C(=O)c2c(C)nn(C)c2O)c1Cl [Compound 009] | 2 (Level 2: 5%-20% growth control rate) | 1 (Level 1: below 5% growth control rate) | 10 | 9 (Level 9: above 95% growth control rate) | 0 | 5 (Level 5: above 60% growth control rate) | 5 (Level 5: above 60% growth control rate)
4 | 0 | Cc1nn(C)c(O)c1C(=O)c1ccc(C(F)(F)F)c(-n2ccnc2)c1Cl [Compound 063] | 10 | 0 | 1 (Level 1: below 5% growth control rate) | 1 (Level 1: below 5% growth control rate) | 9 (Level 9: above 95% growth control rate) | – | 10
5 | 0 | Cc1cnn(-c2c(C(F)(F)F)ccc(C(=O)c3c(C)nn(C)c3O)c2Cl)c1 [Compound 084] | 10 | 8 (Level 8: above 90% growth control rate) | 10 | 10 | 9 (Level 9: above 95% growth control rate) | 7 (Level 7: above 80% growth control rate) | 10
6 | 0 | CCCCN(C(C)=O)c1c(C(F)(F)F)ccc(C(=O)c2c(C)nn(C)c2O)c1Cl [Compound 006] | 0 | 2 (Level 2: 5%-20% growth control rate) | 10 | 3 (Level 3: above 20% growth control rate) | 5 (Level 5: above 60% growth control rate) | 1 (Level 1: below 5% growth control rate) | 5 (Level 5: above 60% growth control rate)
7 | 0 | COCCCN(C(C)=O)c1c(C(F)(F)F)ccc(C(=O)c2c(C)nn(C)c2O)c1Cl [Compound 008] | 3 (Level 3: above 20% growth control rate) | 3 (Level 3: above 20% growth control rate) | 10 | 10 | 0 | 0 | 10
8 | 0 | Cc1cc(C)n(-c2c(C(F)(F)F)ccc(C(=O)c3c(C)nn(C)c3O)c2Cl)n1 [Compound 093] | 5 (Level 5: above 60% growth control rate) | 2 (Level 2: 5%-20% growth control rate) | 5 (Level 5: above 60% growth control rate) | 2 (Level 2: 5%-20% growth control rate) | 0 | 0 | 5 (Level 5: above 60% growth control rate)
9 | 0 | CCCCOCCCN(C(C)=O)c1c(C(F)(F)F)ccc(C(=O)c2c(C)nn(C)c2O)c1Cl [Compound 011] | 0 | 1 (Level 1: below 5% growth control rate) | 1 (Level 1: below 5% growth control rate) | 1 (Level 1: below 5% growth control rate) | 0 | 0 | 5 (Level 5: above 60% growth control rate)
10 | 0 | COCCOCCCN(C(C)=O)c1c(C(F)(F)F)ccc(C(=O)c2c(C)nn(C)c2O)c1Cl [Compound 012] | 10 | 1 (Level 1: below 5% growth control rate) | 9 (Level 9: above 95% growth control rate) | 2 (Level 2: 5%-20% growth control rate) | 0 | 0 | 10
11 | 0 | CC(=O)N(C)c1c(C(F)(F)F)ccc(C(=O)c2c(C)nn(C)c2O)c1Cl [Compound 004] | 9 (Level 9: above 95% growth control rate) | 4 (Level 4: above 50% growth control rate) | 4 (Level 4: above 50% growth control rate) | 1 (Level 1: below 5% growth control rate) | 9 (Level 9: above 95% growth control rate) | 5 (Level 5: above 60% growth control rate) | 9 (Level 9: above 95% growth control rate)

Row | SMILES | effect on crop, Wheat (level) [6] | weed control effect, Indian mallow (level) [1] | weed control effect, Crab grass (level) [2] | weed control effect, Echinochloa (level) [3] | weed control effect, Green foxtail (level) [4] | weed control effect, Rorippa indica (level) [5] | effect on crop, Rice (level) [7] | weed control effect, Bidens bipinnata (level) [8]
12 | Cc1nn(C)c(O)c1C(=O)c1ccc(C(F)(F)F)c(N2CCCC2=O)c1Cl [Compound 018] | 3 (Level 3: above 20% growth control rate) | 9 (Level 9: above 95% growth control rate) | 10 | 8 (Level 8: above 90% growth control rate) | 10 | 10 | – | 10
13 | CC(=O)Nc1c(C(F)(F)F)ccc(C(=O)c2c(C)nn(C)c2O)c1Cl [Compound 002] | 5 (Level 5: above 60% growth control rate) | 10 | 4 (Level 4: above 50% growth control rate) | 8 (Level 8: above 90% growth control rate) | 7 (Level 7: above 80% growth control rate) | 9 (Level 9: above 95% growth control rate) | 7 (Level 7: above 80% growth control rate) | 8 (Level 8: above 90% growth control rate)
